Measurements published in patent US20030199590A1, “Prostaglandin analogues for promotion of hair growth” (priority 2002, published 2003).
Read-outs that look alike come from different tables or passages of the source.

How the values were obtained:
FP receptors = biological target: T1, FP receptors (Bos taurus, UniProt P37289); experiment: FP receptor binding assay ([3H]PGF2α, bovine corpus luteum membranes); conditions: for IC50: Table 1, [3H]PGF2α, bovine corpus luteum membranes, free acid form; for Ki: Table 2, FP receptor binding
T1 construct: Washed total particulate bovine corpus luteum membranes; from tissue; host or cells: bovine corpus luteum membranes
T1 sequence (P37289 whole entry): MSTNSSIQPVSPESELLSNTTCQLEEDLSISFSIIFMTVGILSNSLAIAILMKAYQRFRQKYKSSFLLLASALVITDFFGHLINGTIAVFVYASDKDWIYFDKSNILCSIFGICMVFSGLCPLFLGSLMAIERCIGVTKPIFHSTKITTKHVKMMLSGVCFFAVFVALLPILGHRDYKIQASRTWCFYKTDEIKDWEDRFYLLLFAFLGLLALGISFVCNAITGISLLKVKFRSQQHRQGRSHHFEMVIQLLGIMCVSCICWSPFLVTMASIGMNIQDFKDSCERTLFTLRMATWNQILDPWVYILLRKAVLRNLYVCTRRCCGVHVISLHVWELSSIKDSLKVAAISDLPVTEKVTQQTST
Protocol: Non-specific binding was defined with 1-10 μM unlabeled PGF2α or fluprostenol. The assays were terminated by vacuum filtration (using Whatman GF/B glass fiber filter previously soaked in 0.3% polyethyleneimine) and the data analyzed by a non-linear, iterative, curve-fitting computer program.

[1] = biological target: T2, FP receptors (Swiss 3T3 cells expressing FP receptors) (Mus musculus, UniProt P43117); experiment: FP receptor-mediated phosphoinositide turnover assay; type: cell-based; conditions: for Emax: Swiss-3T3, 1 h, efficacy relative to standard full agonist (100%), read-out: FP functional (%) agonistic activity; for EC50: [3H]-IPs in Swiss 3T3 cells; for % response: efficacy relative to standard
T2 construct: endogenous in cells; host or cells: Swiss 3T3 cells
T2 sequence (P43117 whole entry): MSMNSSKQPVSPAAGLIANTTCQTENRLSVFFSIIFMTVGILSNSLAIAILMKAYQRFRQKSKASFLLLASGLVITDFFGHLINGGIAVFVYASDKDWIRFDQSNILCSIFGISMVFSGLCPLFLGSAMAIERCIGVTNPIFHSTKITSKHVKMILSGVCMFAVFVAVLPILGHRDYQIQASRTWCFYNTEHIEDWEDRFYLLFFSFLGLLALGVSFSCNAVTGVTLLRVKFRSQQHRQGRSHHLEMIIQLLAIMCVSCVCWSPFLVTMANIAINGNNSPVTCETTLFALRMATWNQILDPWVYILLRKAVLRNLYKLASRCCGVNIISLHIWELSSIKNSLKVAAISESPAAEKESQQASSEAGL
Protocol: FP receptor-mediated phosphoinositide turnover assay: [^3H]Inositol phosphates ([^3H]-IPs) produced by agonist-mediated activation of phospholipase C in Swiss 3T3 cells expressing FP receptors were quantified as follows. Confluent 3T3 cells were exposed to 1.0-1.5 μCi [^3H]-myo-inositol (18.3 Ci/mmol) in 0.5 ml DMEM for 24-30 hours at 37° C. Then cells were rinsed once with DMEM/F-12 containing 10 mM LiCl, and the agonist stimulation experiment was performed in 0.5 ml of the same medium to facilitate accumulation of [^3H]-IPs. Cells were exposed to the agonist or solvent for 60 min at 37° C. (triplicate determinations), followed by aspiration of the medium and immediate addition of 1 ml of ice-cold 0.1 M formic acid. The plates were kept cold and then frozen. Samples frozen up to one week were thawed prior to chromatographic separation of radiolabeled components. The cell lysates (0.9 ml) were loaded on columns packed with approximately 1 ml AG 1-X8 anion exchange resin. The elution procedure consisted of a wash with 10 ml of H2O, then 8 ml of 50 mM ammonium formate, and finally 4 ml of 1.2 M ammonium formate with 0.1 M formic acid, which was collected in a scintillation vial. To this eluate was added 15 ml of scintillation fluid and the total [^3H]-IPs determined by scintillation counting on a beta-counter. Data were analyzed by the sigmoidal fit function of the Origin Scientific Graphics software (Microcal Software, Northampton, Mass.) to determine agonist potency (EC50 value) and efficacy, relative to the standard cloprostenol.

[2] = Table 1, read-out: FP functional EC50

IC50 (FP receptors) [nM] | Emax ([1]; Table 1) [%] | EC50 [1, 2] [nM] | Ki (FP receptors) [nM] | EC50 ([1]; Table 2, read-out: EC50) [nM] | % response ([1]; Table 2) [%] | Compound
96 | 87.6 | 19.6 | – | – | – | O=C(O)CCC/C=C\C[C@H]1CC[C@@H](O)[C@@H]1/C=C/[C@@H](O)CCc1ccccc1 [Compound 1]
310 | 60 | 76.6 | – | – | – | O=C(O)CCC/C=C\C[C@H]1CC[C@@H](O)[C@@H]1CC[C@@H](O)CCc1ccccc1 [Compound 2]
10 | 100 | 2.6 | – | – | – | O=C(O)CCC/C=C\C[C@H]1CC[C@@H](O)[C@@H]1/C=C/[C@@H](O)COc1cccc(Cl)c1 [Compound 6]
47 | 84 | 6.6 | – | – | – | O=C(O)CCC/C=C\C[C@H]1CC[C@@H](O)[C@@H]1CC[C@@H](O)CCc1cccc(Cl)c1 [Compound 8]
1900 | 60 | 108 | – | – | – | O=C(O)CCC/C=C\C[C@H]1CC[C@@H](O)[C@@H]1CC[C@@H](O)C1Cc2ccccc2C1 [Compound 11]
7300 | 67 | 194 | – | – | – | O=C(O)CCC/C=C\C[C@H]1[C@@H](O)CO[C@@H]1/C=C/[C@H](O)COc1cccc(Cl)c1 [Compound 14]
890 | 88 | 58 | – | – | – | O=C(O)CCC/C=C\C[C@H]1[C@@H](O)CO[C@@H]1/C=C/[C@@H](O)COc1cccc(Cl)c1 [Compound 15]
26 | 64 | 9 | – | – | – | O=C(O)CCC/C=C\C[C@@H]1[C@@H](CC[C@@H](F)COc2cccc(Cl)c2)[C@H](O)C[C@@H]1O [Compound 17]
9700 | 67 | – | – | – | – | O=C(O)CCCCCC[C@H]1C(=O)CO[C@@H]1/C=C/[C@@H](O)COc1ccccc1 [Compound 20]
78000 | – | > 10000 | – | – | – | O=C(O)CCCCCC[C@H]1C(=O)CO[C@@H]1/C=C/[C@H](O)COc1ccccc1 [Compound 21]
230 | 85 | 12.5 | – | – | – | O=C(O)CCC/C=C\C[C@@H]1[C@@H](CC[C@@H](F)COc2cccc(C(F)(F)F)c2)[C@H](O)C[C@@H]1O [Compound 24]
1800 | 74 | 187 | – | – | – | O=C(O)CCC/C=C\C[C@H]1[C@@H](O)CO[C@@H]1/C=C/[C@@H](O)COc1cccc(C(F)(F)F)c1 [Compound 26]
15000 | 43 | 889 | – | – | – | O=C(O)CCC/C=C\C[C@H]1[C@@H](O)CO[C@@H]1/C=C/[C@H](O)COc1cccc(C(F)(F)F)c1 [Compound 27]
1900 | 100 | 80 | – | – | – | O=C(O)CCC/C=C\C[C@H]1[C@@H](O)CO[C@@H]1/C=C/[C@@H](O)CCc1ccccc1 [Compound 28]
573 | 100 | 48.6 | – | – | – | O=C(O)CCC/C=C\C[C@H]1[C@@H](O)CO[C@@H]1/C=C/[C@H](O)COc1ccccc1 [Compound 32]
640 | 67 | 293 | – | – | – | O=C(O)CCC/C=C\C[C@H]1[C@@H](O)CO[C@@H]1/C=C/[C@@H](O)COc1ccccc1 [Compound 33]
4600 | 75 | 1240 | – | – | – | O=C(O)CCC/C=C\C[C@H]1[C@@H](O)CO[C@@H]1/C=C/[C@H](O)COc1ccc(F)cc1 [Compound 36]
1400 | 78 | 437 | – | – | – | O=C(O)CCC/C=C\C[C@H]1[C@@H](O)CO[C@@H]1/C=C/[C@@H](O)COc1ccc(F)cc1 [Compound 37]
36000 | – | > 10000 | – | – | – | O=C(O)CCC/C=C\C[C@@H]1C(C#C[C@H](O)COc2cccc(Cl)c2)OC[C@@H]1O (stereo partly drawn) [Compound 38]
5100 | 100 | 509 | – | – | – | O=C(O)CCC/C=C\C[C@@H]1C(C#C[C@@H](O)COc2cccc(Cl)c2)OC[C@@H]1O (stereo partly drawn) [Compound 39]
430 | 82 | 23 | – | – | – | O=C(O)CC/C=C\CC[C@H]1[C@@H](O)CO[C@@H]1/C=C/[C@@H](O)COc1cccc(Cl)c1 [Compound 40]

IC50 (FP receptors) [nM] | Emax ([1]; Table 1) [%] | EC50 [1, 2] [nM] | Ki (FP receptors) [nM] | EC50 ([1]; Table 2, read-out: EC50) [nM] | % response ([1]; Table 2) [%] | Compound
52 | 79 | 9.5 | – | – | – | O=C(O)CCC/C=C\C[C@@H]1[C@@H](CC[C@@H](F)COc2ccccc2)[C@H](O)C[C@@H]1O [Compound 45]
5100 | 59 | 252 | – | – | – | O=C(O)CC/C=C\CC[C@H]1[C@@H](O)CO[C@@H]1/C=C/[C@H](O)COc1ccccc1 [Compound 50]
9900 | 61 | 781 | – | – | – | O=C(O)CC/C=C\CC[C@H]1[C@@H](O)CO[C@@H]1/C=C/[C@H](O)COc1cccc(C(F)(F)F)c1 [Compound 51]
330 | 83 | 57 | – | – | – | O=C(O)CC/C=C\CC[C@H]1[C@@H](O)CO[C@@H]1/C=C/[C@@H](O)COc1ccccc1 [Compound 52]
350 | 92 | 96 | – | – | – | O=C(O)CC/C=C\CC[C@H]1[C@@H](O)CO[C@@H]1/C=C/[C@@H](O)COc1cccc(C(F)(F)F)c1 [Compound 53]
818 | 71 | 249 | – | – | – | O=C(O)CC/C=C\CC[C@H]1[C@@H](O)CO[C@@H]1/C=C/[C@H](O)COc1cccc(Cl)c1 [Compound 54]
267 | 104 | 3.8 | – | – | – | O=C(O)CCC/C=C\C[C@@H]1[C@@H](/C=C/[C@@H](F)COc2ccccc2)[C@H](O)C[C@@H]1O [Compound 57]
1120 | 98 | 96 | – | – | – | O=C(O)CCC/C=C\C[C@@H]1[C@@H](/C=C/[C@H](F)COc2ccccc2)[C@H](O)C[C@@H]1O [Compound 60]
182 | 76 | 81 | – | – | – | O=C(O)CCC/C=C\C[C@@H]1[C@@H](/C=C/[C@H](F)COc2cccc(Cl)c2)[C@H](O)C[C@@H]1O [Compound 62]
238 | 84 | 2.2 | – | – | – | O=C(O)CCC/C=C\C[C@@H]1[C@@H](/C=C/[C@@H](F)COc2cccc(Cl)c2)[C@H](O)C[C@@H]1O [Compound 63]
540 | 91 | 57.8 | – | – | – | O=C(O)CCC/C=C\C[C@@H]1[C@@H](OC[C@@H](O)COc2cccc(Cl)c2)[C@H](O)C[C@@H]1O [Compound 65]
4340 | 56 | 503 | – | – | – | O=C(O)CCC/C=C\C[C@@H]1[C@@H](OC[C@H](O)COc2cccc(Cl)c2)[C@H](O)C[C@@H]1O [Compound 66]
277 | 57 | 56 | – | – | – | O=C(O)CCC/C=C\C[C@@H]1[C@@H](OC[C@@H](O)COc2ccccc2)[C@H](O)C[C@@H]1O [Compound 69]
1070 | 57 | 166 | – | – | – | O=C(O)CCC/C=C\C[C@@H]1[C@@H](OC[C@H](O)COc2ccccc2)[C@H](O)C[C@@H]1O [Compound 70]
690 | 67 | 8.8 | – | – | – | O=C(O)CC/C=C\CC[C@@H]1[C@@H](CC[C@@H](F)COc2ccccc2)[C@H](O)C[C@@H]1O [Compound 74]
160 | 83 | 11.1 | – | – | – | O=C(O)CCC/C=C\C[C@@H]1[C@@H](/C=C/[C@@H](F)COc2cccc(C(F)(F)F)c2)[C@H](O)C[C@@H]1O [Compound 75]
4200 | 44.5 | 131 | – | – | – | O=C(O)CCC/C=C\C[C@@H]1[C@@H](/C=C/[C@H](F)COc2cccc(C(F)(F)F)c2)[C@H](O)C[C@@H]1O [Compound 76]
– | – | – | 91 | 1.4 | 100 | O=C(O)CCC/C=C\C[C@@H]1[C@@H](/C=C/[C@@H](O)COc2cccc(Cl)c2)[C@H](O)C[C@@H]1O [Compound 81]
– | – | – | 35 | 3.8 | 96 | O=C(O)CCC/C=C\C[C@@H]1[C@@H](/C=C/[C@@H](O)COc2cccc(C(F)(F)F)c2)[C@H](O)C[C@@H]1O [Compound 82]
– | – | – | 50 | 4 | 100 | O=C(O)CCC/C=C\C[C@@H]1[C@@H](CC[C@@H](O)COc2cccc(Cl)c2)[C@H](O)C[C@@H]1O [Compound 83]
– | – | – | 130 | 210 | 76 | O=C(O)CCC/C=C\C[C@@H]1[C@@H](CC[C@H](O)COc2cccc(Cl)c2)[C@H](O)C[C@@H]1O [Compound 84]

Compound | IC50 (FP receptors) [nM] | Emax ([1]; Table 1) [%] | EC50 [1, 2] [nM] | Ki (FP receptors) [nM] | EC50 ([1]; Table 2, read-out: EC50) [nM] | % response ([1]; Table 2) [%]
O=C(O)CCCCCC[C@@H]1[C@@H](CC[C@@H](O)COc2cccc(Cl)c2)[C@H](O)C[C@@H]1O [Compound 85] | – | – | – | 220 | 23 | 100
